Assays:
Format in all cases: functional
[1] = test system: NCI-H460; test: Cytotoxicity against human NCI-H460 cells assessed as cell growth at 100 uM after 48 hrs by SRB assay relative to control; conditions: NCI-H460, 48 h, read-out: Activity
[2] = test system: OVCAR-8; test: Cytotoxicity against human OVCAR8 cells assessed as cell growth at 100 uM after 48 hrs by SRB assay relative to control; conditions: OVCAR-8, 48 h, read-out: Activity
[3] = test system: UACC-257; test: Cytotoxicity against human UACC257 cells after 48 hrs by SRB assay; conditions: UACC-257, 48 h
[4] = test system: SNB-19; test: Cytotoxicity against human SNB19 cells assessed as cell growth at 1 uM after 48 hrs by SRB assay relative to control; conditions: SNB-19, 48 h, read-out: Activity
[5] = test system: MDA-MB-468; test: Cytotoxicity against human MDA-MB-468 cells after 48 hrs by SRB assay; conditions: MDA-MB-468, 48 h
[6] = test system: MDA-MB-468; test: Cytotoxicity against human MDA-MB-468 cells assessed as cell growth at 0.01 uM after 48 hrs by SRB assay relative to control; conditions: MDA-MB-468, 48 h, read-out: Activity
[7] = test system: SF-539; test: Cytotoxicity against human SF539 cells assessed as cell growth at 1 uM after 48 hrs by SRB assay relative to control; conditions: SF-539, 48 h, read-out: Activity
[8] = test system: SK-MEL-5; test: Cytotoxicity against human SK-MEL-5 cells after 48 hrs by SRB assay; conditions: SK-MEL-5, 48 h; for CC50: read-out: LC50 (the source's name)
[9] = test system: TK-10; test: Cytotoxicity against human TK10 cells assessed as cell growth at 100 uM after 48 hrs by SRB assay relative to control; conditions: TK-10, 48 h, read-out: Activity
[10] = test system: LOX IMVI; test: Cytotoxicity against human LOXIMVI cells after 48 hrs by SRB assay
[11] = test system: K562; test: Cytotoxicity against human K562 cells assessed as cell growth at 0.01 uM after 48 hrs by SRB assay relative to control; conditions: K562, 48 h, read-out: Activity
[12] = test system: ACHN; test: Cytotoxicity against human ACHN cells after 48 hrs by SRB assay; conditions: for CC50: read-out: LC50 (the source's name)
[13] = test system: SW-620; test: Cytotoxicity against human SW620 cells assessed as cell growth at 1 uM after 48 hrs by SRB assay relative to control; conditions: SW-620, 48 h, read-out: Activity
[14] = test system: A549; test: Cytotoxicity against human A549 cells assessed as cell growth at 0.1 uM after 48 hrs by SRB assay relative to control; conditions: A549, 48 h, read-out: Activity
[15] = test system: MOLT-4; test: Cytotoxicity against human MOLT4 cells assessed as cell growth at 0.01 uM after 48 hrs by SRB assay relative to control; conditions: MOLT-4, 48 h, read-out: Activity
[16] = test system: HOP-62; test: Cytotoxicity against human HOP62 cells after 48 hrs by SRB assay; conditions: HOP-62, 48 h; for CC50: read-out: LC50 (the source's name)
[17] = test system: DU-145; test: Cytotoxicity against human DU145 cells assessed as cell growth at 1 uM after 48 hrs by SRB assay relative to control; conditions: DU-145, 48 h, read-out: Activity
[18] = test system: M14; test: Cytotoxicity against human M14 cells after 48 hrs by SRB assay; conditions: M14, 48 h
[19] = test system: Hs-578T; test: Cytotoxicity against human Hs 578T cells assessed as cell growth at 100 uM after 48 hrs by SRB assay relative to control; conditions: read-out: Activity
[20] = test system: SK-MEL-2; test: Cytotoxicity against human SK-MEL-2 cells assessed as cell growth at 0.01 uM after 48 hrs by SRB assay relative to control; conditions: SK-MEL-2, 48 h, read-out: Activity
[21] = test system: NCI-H522; test: Cytotoxicity against human NCI-H522 cells assessed as cell growth at 100 uM after 48 hrs by SRB assay relative to control; conditions: NCI-H522, 48 h, read-out: Activity
[22] = test system: SN12C; test: Cytotoxicity against human SN12C cells assessed as cell growth at 0.01 uM after 48 hrs by SRB assay relative to control; conditions: read-out: Activity
[23] = test system: RXF 393; test: Cytotoxicity against human RXF393 cells assessed as cell growth at 0.1 uM after 48 hrs by SRB assay relative to control; conditions: RXF 393, 48 h, read-out: Activity
[24] = test system: NCI-H226; test: Cytotoxicity against human NCI-H226 cells assessed as cell growth at 0.01 uM after 48 hrs by SRB assay relative to control; conditions: NCI-H226, 48 h, read-out: Activity
[25] = test system: M14; test: Cytotoxicity against human M14 cells assessed as cell growth at 100 uM after 48 hrs by SRB assay relative to control; conditions: M14, 48 h, read-out: Activity
[26] = test system: HCC 2998; test: Cytotoxicity against human HCC2998 cells assessed as cell growth at 100 uM after 48 hrs by SRB assay relative to control; conditions: HCC 2998, 48 h, read-out: Activity
[27] = test system: LOX IMVI; test: Cytotoxicity against human LOXIMVI cells assessed as cell growth at 0.1 uM after 48 hrs by SRB assay relative to control; conditions: read-out: Activity
[28] = test system: COLO 205; test: Cytotoxicity against human COLO205 cells assessed as cell growth at 100 uM after 48 hrs by SRB assay relative to control; conditions: COLO 205, 48 h, read-out: Activity
[29] = test system: SF-539; test: Cytotoxicity against human SF539 cells assessed as cell growth at 100 uM after 48 hrs by SRB assay relative to control; conditions: SF-539, 48 h, read-out: Activity
[30] = test system: SF-295; test: Cytotoxicity against human SF295 cells after 48 hrs by SRB assay; conditions: SF-295, 48 h; for CC50: read-out: LC50 (the source's name)
[31] = test system: HCT-116; test: Cytotoxicity against human HCT116 cells assessed as cell growth at 0.1 uM after 48 hrs by SRB assay relative to control; conditions: HCT-116, 48 h, read-out: Activity
[32] = test system: DU-145; test: Cytotoxicity against human DU145 cells assessed as cell growth at 100 uM after 48 hrs by SRB assay relative to control; conditions: DU-145, 48 h, read-out: Activity
[33] = test system: CAKI-1; test: Cytotoxicity against human Caki1 cells assessed as cell growth at 0.1 uM after 48 hrs by SRB assay relative to control; conditions: CAKI-1, 48 h, read-out: Activity
[34] = test system: SK-MEL-2; test: Cytotoxicity against human SK-MEL-2 cells after 48 hrs by SRB assay; conditions: SK-MEL-2, 48 h
[35] = test system: UACC-257; test: Cytotoxicity against human UACC257 cells assessed as cell growth at 0.01 uM after 48 hrs by SRB assay relative to control; conditions: UACC-257, 48 h, read-out: Activity

N#CCCCCCn1cc(C2=C(c3cn(CCCCCC#N)c4ccccc34)C(=O)N(O)C2=O)c2ccccc21
growth at 100 µM [1]: -26% | growth at 100 µM [2]: 3% | GI50 [3]: 12.1 µM | LC50 [3]: > 100 µM | TGI [3]: 55.6 µM | growth at 1 µM [4]: 91% | GI50 [5]: 3.47 µM | LC50 [5]: > 100 µM | TGI [5]: 13.9 µM | growth at 0.01 µM [6]: 106% | growth at 1 µM [7]: 93% | GI50 [8]: 2.92 µM | TGI [8]: 10.6 µM | CC50 [8]: 42.8 µM | growth at 100 µM [9]: 12% | GI50 [10]: 2.53 µM | LC50 [10]: > 100 µM | TGI [10]: 48.1 µM | growth at 0.01 µM [11]: 85% | GI50 [12]: 8.04 µM | TGI [12]: > 100 µM | CC50 [12]: > 100 µM | growth at 1 µM [13]: 91% | growth at 0.1 µM [14]: 102% | growth at 0.01 µM [15]: 87% | GI50 [16]: 7.94 µM | TGI [16]: > 100 µM | CC50 [16]: > 100 µM | growth at 1 µM [17]: 107% | GI50 [18]: 4.42 µM | LC50 (concentration killing 50% of cells) [18]: > 100 µM | TGI [18]: 34 µM | growth at 100 µM [19]: 5% | growth at 0.01 µM [20]: 100% | growth at 100 µM [21]: -30% | growth at 0.01 µM [22]: 97% | growth at 0.1 µM [23]: 102% | growth at 0.01 µM [24]: 95% | growth at 100 µM [25]: -25% | growth at 100 µM [26]: 1% | growth at 0.1 µM [27]: 90% | growth at 100 µM [28]: -22% | growth at 100 µM [29]: -36% | GI50 [30]: 5.93 µM | TGI [30]: 31.4 µM | CC50 [30]: > 100 µM | growth at 0.1 µM [31]: 97% | growth at 100 µM [32]: 12% | growth at 0.1 µM [33]: 95% | GI50 [34]: 3.38 µM | LC50 (concentration killing 50% of cells) [34]: > 100 µM | TGI [34]: 14.9 µM | growth at 0.01 µM [35]: 97%

Cn1cc(C2=C(c3cn(C)c4ncccc34)C(=O)NC2=O)c2ccccc21
growth at 100 µM [1]: -36% | growth at 100 µM [2]: -15% | GI50 [3]: 6.32 µM | TGI [3]: 54.8 µM | growth at 1 µM [4]: 91% | GI50 [5]: 2.22 µM | TGI [5]: 9.46 µM | growth at 0.01 µM [6]: 101% | growth at 1 µM [7]: 86% | GI50 [8]: 2.15 µM | TGI [8]: 5.8 µM | CC50 [8]: 21.8 µM | growth at 100 µM [9]: -18% | GI50 [10]: 2.61 µM | TGI [10]: 30.2 µM | growth at 0.01 µM [11]: 108% | GI50 [12]: 2.93 µM | TGI [12]: 26.2 µM | CC50 [12]: > 100 µM | growth at 1 µM [13]: 88% | growth at 0.1 µM [14]: 94% | growth at 0.01 µM [15]: 103% | GI50 [16]: 3.69 µM | TGI [16]: 36.7 µM | CC50 [16]: > 100 µM | growth at 1 µM [17]: 104% | GI50 [18]: 3.84 µM | TGI [18]: 12.5 µM | growth at 100 µM [19]: -37% | growth at 0.01 µM [20]: 109% | growth at 100 µM [21]: -30% | growth at 0.01 µM [22]: 89% | growth at 0.1 µM [23]: 98% | growth at 0.01 µM [24]: 99% | growth at 100 µM [25]: -67% | growth at 100 µM [26]: -37% | growth at 0.1 µM [27]: 92% | growth at 100 µM [28]: -65% | growth at 100 µM [29]: -64% | GI50 [30]: 2.61 µM | TGI [30]: 10.3 µM | CC50 [30]: > 100 µM | growth at 0.1 µM [31]: 107% | growth at 100 µM [32]: -28% | growth at 0.1 µM [33]: 86% | GI50 [34]: 3.2 µM | TGI [34]: 8.28 µM | growth at 0.01 µM [35]: 104%
